The source of these data is ChEMBL document CHEMBL3046925, “,-Dibromoacetophenones mediated synthesis of some new 7H-7-alkoxy-3-alkyl/phenyl-6-aryl-s-triazolo[3,4-b][1,3,4]thiadiazines and their antimicrobial evaluation” (2012).

Converted amounts (≈) assume the structure as drawn. The source made the active and inactive calls. The rule behind the calls is not given here.

The subject of test [1] is Saccharomyces cerevisiae. The test is described as follows: Antimicrobial activity against Saccharomyces cerevisiae MTCC 170 at 2 mg/ml after 24 hr by agar well diffusion method. Format: functional. The conditions noted are these: for zone of inhibition at 2000 µg/mL: MTCC 170, 24 h, read-out: DIZ.
In test [2] the test system is Candida albicans. The experiment in a line: Antimicrobial activity against Candida albicans MTCC 227 at 2 mg/ml by two-fold serial dilution method. The class given is functional.
Test [3] relates to Bacillus subtilis. The conditions noted are these: MTCC 121.
Description: (§1) Antimicrobial activity against Bacillus subtilis MTCC 121 at 2 mg/ml after 24 hr by agar well diffusion method
The test system of test [4] is Staphylococcus aureus. The conditions noted are these: MTCC 96.
The test system of test [5] is Bacillus subtilis. The conditions noted are these: MTCC 121. The source holds these as a separate data set.
Description: (§2) Antimicrobial activity against Bacillus subtilis MTCC 121 at 2 mg/ml after 24 hr by two-fold serial dilution method
In test [6] the test system is Staphylococcus aureus. The conditions noted are these: MTCC 96. This is another data set of the same source.
The subject of another test is Pseudomonas aeruginosa. The test is described as follows: Antimicrobial activity against Pseudomonas aeruginosa MTCC 741 at 2 mg/ml after 24 hr by agar well diffusion method. Format: functional, organism-based. (In agar diffusion tests the substance spreads into inoculated agar from a disc or well.)
Test [7] has as its system Saccharomyces cerevisiae. The experiment in a line: Antimicrobial activity against Saccharomyces cerevisiae MTCC 170 after 24 hr by two-fold serial dilution method. The class given is functional.
In a further test the test system is Escherichia coli. The test is described as follows: Antimicrobial activity against Escherichia coli MTCC 1652 at 2 mg/ml after 24 hr by agar well diffusion method. The class given is functional, organism-based.
Test [8] deals with Candida albicans. The test is described as follows: Antimicrobial activity against Candida albicans MTCC 227 at 2 mg/ml by agar well diffusion method. The class given is functional. The conditions noted are these: for zone of inhibition at 2000 µg/mL: read-out: DIZ.
In test [9] the test system is Staphylococcus aureus. The test is described as follows: Antimicrobial activity against Staphylococcus aureus MTCC 96 after 24 hr by two-fold serial dilution method. The class given is functional. The conditions noted are these: MTCC 96, 24 h.
Test [10] relates to Bacillus subtilis. The experiment in a line: microbe, parasite or virus in culture. The class given is functional. The conditions noted are these: MTCC 121, 24 h, read-out: DIZ.
Description: as §1
Test [11] has as its system Staphylococcus aureus. The experiment in a line: Antimicrobial activity against Staphylococcus aureus MTCC 96 at 2 mg/ml after 24 hr by agar well diffusion method. Format: functional. The conditions noted are these: MTCC 96, 24 h, read-out: DIZ.
Test [12] relates to Bacillus subtilis. The experiment in a line: microbe, parasite or virus in culture. The class given is functional. The conditions noted are these: MTCC 121, 24 h.
Description: as §2

As for `CCOC1Sc2nnc(CC)n2N=C1c1ccc(F)cc1` (stereo not given), the zone of inhibition at 2000 µg/mL came out at 13.6 mm in the test with Saccharomyces cerevisiae [1] and 13 mm with Candida albicans [8]. In addition, the MIC worked out at 128 µg/mL (≈ 418 µM) against Candida albicans [2] and 128 µg/mL (≈ 418 µM) in the test on Saccharomyces cerevisiae [7] (MTCC 170, 24 h). The DIZ result in the test on Bacillus subtilis [3] and in the test on Staphylococcus aureus [4] was “inactive” in each case. The MIC result with Bacillus subtilis [5] and in the test on Staphylococcus aureus [6] was “inactive” each time. Moreover, the result in the test with Pseudomonas aeruginosa and in the test with Escherichia coli was inactive.

Take `CCOC1Sc2nnc(CC)n2N=C1c1ccc(Cl)cc1` (stereo not given): the values for the zone of inhibition at 2000 µg/mL in the test on Saccharomyces cerevisiae [1] and in the test with Candida albicans [8] were 18.3 mm and 15.6 mm, respectively. The MIC in the test with Candida albicans [2] was 64 µg/mL (≈ 198 µM); in the test on Saccharomyces cerevisiae [7] (MTCC 170, 24 h), 32 µg/mL (≈ 99.1 µM). Besides, the DIZ entry with Bacillus subtilis [3] and with Staphylococcus aureus [4] was “inactive” throughout. In addition, the MIC result in the test with Bacillus subtilis [5] and in the test on Staphylococcus aureus [6] was “inactive” throughout. In addition, the outcome in the test on Pseudomonas aeruginosa and in the test with Escherichia coli was inactive.

As to `CCOC1Sc2nnc(CC)n2N=C1c1ccc([N+](=O)[O-])cc1` (stereo not given), the zone of inhibition at 2000 µg/mL stood at 15.6 mm in the test on Saccharomyces cerevisiae [1] and 13.3 mm with Candida albicans [8]. For the same molecule, the MIC was determined as 128 µg/mL (≈ 384 µM) against Candida albicans [2] and 64 µg/mL (≈ 192 µM) in the test with Saccharomyces cerevisiae [7] (MTCC 170, 24 h). The DIZ result in the test with Bacillus subtilis [3] and in the test with Staphylococcus aureus [4] was “inactive” throughout. For the same molecule, the MIC result in the test with Bacillus subtilis [5] and with Staphylococcus aureus [6] was “inactive” each time. Further, the result in the test with Pseudomonas aeruginosa and with Escherichia coli was inactive.

Take `CCOC1Sc2nnc(CC)n2N=C1c1ccccc1` (stereo not given): the “diameter of the inhibition zone (DIZ)” value with Saccharomyces cerevisiae [1] and in the test on Candida albicans [8] was “inactive” each time. The MIC entry with Candida albicans [2] and in the test with Saccharomyces cerevisiae [7] was “inactive” in each case. The MIC stood at 256 µg/mL (≈ 888 µM) with Staphylococcus aureus [9] and 64 µg/mL (≈ 222 µM) in the test on Bacillus subtilis [12]. Moreover, the zone of inhibition at 2000 µg/mL was determined as 18.3 mm in the test on Bacillus subtilis [10] and 13.6 mm in the test with Staphylococcus aureus [11]. Also, the result in the test on Pseudomonas aeruginosa and in the test on Escherichia coli was inactive.

Regarding `CC(C)OC1Sc2nncn2N=C1c1ccccc1` (stereo not given), the zone of inhibition at 2000 µg/mL in the test on Saccharomyces cerevisiae [1] was determined as 13.3 mm; in the test with Bacillus subtilis [10] it was 13.6 mm; with Staphylococcus aureus [11] it was 14.6 mm. For the same molecule, the MIC entry in the test with Candida albicans [2] is “inactive”. The MIC was 256 µg/mL (≈ 933 µM) in the test on Staphylococcus aureus [9]; 128 µg/mL (≈ 467 µM) in the test on Saccharomyces cerevisiae [7] (MTCC 170, 24 h); 256 µg/mL (≈ 933 µM) against Bacillus subtilis [12]. The result in the test on Pseudomonas aeruginosa and with Escherichia coli was inactive. Also, the “diameter of the inhibition zone (DIZ)” value in the test on Candida albicans [8] was “inactive”.

For `CCOC1Sc2nncn2N=C1c1ccccc1` (stereo not given), the zone of inhibition at 2000 µg/mL with Saccharomyces cerevisiae [1] turned out to be 13.6 mm; with Bacillus subtilis [10], 20.3 mm; with Staphylococcus aureus [11], 16.3 mm; in the test on Candida albicans [8], 13.6 mm. Besides, the MIC result in the test on Candida albicans [2] was “inactive”. Also, the MIC in the test on Staphylococcus aureus [9] worked out at 128 µg/mL (≈ 492 µM); with Saccharomyces cerevisiae [7] (MTCC 170, 24 h), 128 µg/mL (≈ 492 µM); with Bacillus subtilis [12], 64 µg/mL (≈ 246 µM). The result in the test on Pseudomonas aeruginosa and in the test with Escherichia coli was inactive.

Regarding `CCOC1Sc2nnc(-c3ccccc3)n2N=C1c1ccccc1` (stereo not given), the zone of inhibition at 2000 µg/mL in the test with Saccharomyces cerevisiae [1] worked out at 17.6 mm; in the test on Bacillus subtilis [10], 17.6 mm; with Staphylococcus aureus [11] it was 24.3 mm; with Candida albicans [8], 15.6 mm. In addition, the MIC against Candida albicans [2] stood at 64 µg/mL (≈ 190 µM); in the test with Staphylococcus aureus [9], 16 µg/mL (≈ 47.6 µM); in the test on Saccharomyces cerevisiae [7] (MTCC 170, 24 h), 32 µg/mL (≈ 95.1 µM); against Bacillus subtilis [12], 128 µg/mL (≈ 380 µM). The result with Pseudomonas aeruginosa and in the test with Escherichia coli was inactive.
